Drawing on US20110218189A1, “PYRROLO[2,3-d]PYRIMIDIN-2-YL-AMINE DERIVATIVES AS PKC-THETA INHIBITORS” (N.V. ORGANON, priority 2008, published 2011), this text covers IC50 for one compound.

In the assay the target is T1, His-tagged human recombinant active PKC theta (Homo sapiens, UniProt Q04759).
T1 construct: His; made in house
Briefly: IMAP fluorescence polarization assay, inhibition of PKC theta kinase activity. It is filed as biochemical. As to conditions: ATP 10 μM, peptide substrate 50 nM, 60 minutes at 30° C.; read-out: IC50 IMAP PKCθ. How it is done:
Inhibition of PKC theta kinase activity was measured using an Immobilized Metal for Phosphochemicals—based coupled assay (IMAP). IMAP is a homogeneous fluorescence polarization (FP) assay based on affinity capture of phosphorylated peptide substrates. IMAP uses fluorescein-labeled peptide substrates that, upon phosphorylation by a protein kinase, bind to so called IMAP nanoparticles, which are derivatized with trivalent metal complexes. Such binding causes a change in the rate of the molecular motion of the peptide, and results in an increase in the FP value observed for the fluorescein label attached to the substrate peptide. In this assay, PKC theta directly phosphorylates the fluorescein-labeled peptide substrate.
Enzymes, substrate and ATP are diluted at all steps in Kinase Reaction buffer (10 mM Tris-HCl, 10 mM MgCl2, 0.01% Tween-20, 0.05% NaN3 pH 7.2, 1 mM DTT). The final volume at the kinase reaction step of the assay in the 384-well plate is 20 μl. The concentrations presented within brackets are final concentrations. First, compounds or DMSO (1%) are added to the wells. Thereafter, peptide substrate (Pseudosubstrate LHQRRGSIKQAKVHHVK-FL, Neosystem, 50 nM) and ATP (10 μM) are added followed by the addition of the PKC theta enzyme (His-tagged human recombinant active PKC theta, 82 kDa, in-house purified, 10 ng/ml), and the mix is incubated for 60 minutes at 30° C. in the dark. Then IMAP progressive binding buffer (100% 1× buffer A, 1:400 Progressive Binding Reagent; Molecular Devices) is added followed by an incubation step of 60 minutes at room temperature in the dark. Finally, the FP signal is read.
Background: In fluorescence polarisation assays a small probe gives low polarisation when free and higher when bound to something large.

T1 sequence (Q04759 whole entry): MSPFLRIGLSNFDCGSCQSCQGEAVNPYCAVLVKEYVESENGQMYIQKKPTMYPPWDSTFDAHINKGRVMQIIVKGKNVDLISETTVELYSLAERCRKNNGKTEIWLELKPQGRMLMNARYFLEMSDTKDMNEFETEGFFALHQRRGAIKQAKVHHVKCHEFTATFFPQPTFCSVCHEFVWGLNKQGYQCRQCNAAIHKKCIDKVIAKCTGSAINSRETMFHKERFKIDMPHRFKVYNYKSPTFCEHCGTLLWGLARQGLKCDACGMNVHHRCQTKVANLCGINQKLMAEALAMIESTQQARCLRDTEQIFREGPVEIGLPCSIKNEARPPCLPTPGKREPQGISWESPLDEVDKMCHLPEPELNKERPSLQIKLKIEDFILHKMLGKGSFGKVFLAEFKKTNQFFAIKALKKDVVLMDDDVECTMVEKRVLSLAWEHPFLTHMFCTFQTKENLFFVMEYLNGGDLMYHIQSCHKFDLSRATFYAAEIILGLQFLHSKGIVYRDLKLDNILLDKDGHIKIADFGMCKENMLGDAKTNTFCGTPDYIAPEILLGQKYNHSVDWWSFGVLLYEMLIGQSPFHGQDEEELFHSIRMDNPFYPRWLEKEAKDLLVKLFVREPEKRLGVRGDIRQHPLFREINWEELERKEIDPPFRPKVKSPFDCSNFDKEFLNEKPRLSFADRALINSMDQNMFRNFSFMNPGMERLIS

As to `Fc1ccc(CNc2ncc3c(Br)c(-c4c(Cl)cccc4Cl)n(C[C@@H]4CCCNC4)c3n2)cc1F` [Example 7.3, (R)-5-bromo-6-(2,6-dichlorophenyl)-N-(3,4-difluorobenzyl)-7-(piperidin-3-ylmethyl)-7H-pyrrolo[2,3-d]pyrimidin-2-amine], the IC50 was less than 10 nM.

For orientation: IC50 means the point on the concentration scale where inhibition reaches its midpoint.
